This note sets out measurements from patent US12161647B2, “Treating hearing loss” (Massachusetts Eye and Ear Infirmary, priority 2012, dated 2024).

One data set deals with deafened ears. Nature of the data set: ABR and DPOAE in deafened ears after round window administration. Type of data set: in vivo, mouse. The protocol: (§1) 4-week-old mice were exposed free-field, awake and unrestrained, in a small reverberant chamber (22). Acoustic trauma was produced by a 2 h exposure to an 8-16 kHz octave band noise presented at 116 dB SPL. The exposure stimulus was generated by a custom white-noise source, filtered (Brickwall Filter with a 60 dB/octave slope), amplified (Crown power amplifier), and delivered (JBL compression driver) through an exponential horn fitted securely to a hole in the top of a reverberant box.
(§2) 4-week-old mice weighing 12 to 16 g were used. Before surgery, the animals were anesthetized with ketamine (20 mg/kg, i.p.) and xylazine (100 mg/kg, i.p.), and an incision was made posterior to the pinna near the external meatus after local administration of lidocaine (1%). The otic bulla was opened to approach the round window niche. The end of a piece of PE 10 tubing (Becton Dickinson) was drawn to a fine tip in a flame and gently inserted into the round window niche. LY411575 was dissolved in DMSO and diluted 10-fold in polyethylene glycol 400 (Sigma) to a final concentration of 4 mM. This solution (total volume 1 μl) was injected into the round window niche of the left ear. Polyethylene glycol 400 with 10% DMSO was injected into the right ear as a control. The solution was administered for 2 min. This approach is presently used clinically (e.g. transtympanic injection of steroids for sudden hearing loss and gentamicin for severe balance disorders) and has the advantage of sparing the […] but still taking advantage of the local route provided by the round window membrane for delivery of drug into the inner ear (50). Gelatin was placed on the niche to maintain the solution, and the wound was closed.
Auditory brain stem responses (51, 52) were measured in each animal at 7 log-spaced frequencies (half-octave steps from 5.6 to 45.2 kHz) before and 1 d after noise exposure, and 1-week, 1-month, and 3-months after surgery. Mice were anesthetized with ketamine (100 mg/kg i.p.) and xylazine (20 mg/kg i.p.). Needle electrodes were inserted at vertex and pinna, with a ground near the tail. ABRs were evoked with 5-ms tone pips (0.5-ms rise-fall with a cos^2 onset envelope delivered at 35/s). The response was amplified, filtered and averaged in a LabVIEW-driven data-acquisition system. Sound level was raised in 5 dB steps from ≥10 dB below threshold <80 dB SPL. At each sound level, 1024 responses were averaged (with stimulus polarity alternated), using an “artifact reject,” whereby response waveforms were discarded when peak-to-peak response amplitude exceeded 15 μV. […] For amplitude versus level functions, the wave I peak was identified by visual inspection at each sound level and the peak-to-peak amplitude computed.

A further data set has as its system deafened mature cochlea. Nature of the data set: Hair cell and supporting cell counts in deafened mature cochlea after round window administration. Type of data set: in vivo, mouse. The protocol:
as §1, §2
For collection of mature mouse cochleae, after being deeply anesthetized with ketamine and xylazine, the mice were transcardially perfused with 0.01 M phosphate buffer (pH 7.4) containing 8.6% sucrose, followed by fixative consisting of freshly depolymerized 4% paraformaldehyde in 0.1 M phosphate buffer (pH 7.4). After decapitation, the temporal bones were removed and immediately placed in the same fixative at 4° C. Small openings were made at the round window, oval window, and apex of the cochlea. […] Primary antibodies were detected with secondary antibodies conjugated with Alexa 488, 568, and 647 (Molecular Probes) and viewed by confocal fluorescence microscopy (TCS SP5, Leica). […]
Cell counting for spheres was performed with MetaMorph software. The cell number was determined from DAPI- or Hoechst-positive nuclei. […] For explants, inner hair cells, outer hair cells, and supporting cells in the outer hair cell region were counted on cochlear whole mounts. […]

Data set [1] in a line: Toxicity of systemic LY411575. Type of data set: in vivo. As to conditions: 50 mg/kg for 5 d. The protocol: For systemic administration, LY411575 (50 mg/kg) dissolved in 0.5% (wt/vol) methylcellulose (WAKO) was injected orally once daily for 5 consecutive d. Hearing was measured by ABR at 1 d before, 2 d, 1, 2 week, 1, 2 and 3 months after noise exposure.
Preliminary range finding experiments for drug treatment were carried out by systemic injection and were limited by toxicity. A minimal dosing regimen for an effect on the thymus weight was chosen (43, 44).

The next data set relates to noise-damaged cochlea. In words: ABR after systemic LY411575 in noise-damaged mice. Type of data set: in vivo, mouse. The protocol: as §1
[…] Hearing was measured by ABR at 1 d before, 2 d, 1, 2 week, 1, 2 and 3 months after noise exposure.
Mice were anesthetized with ketamine (100 mg/kg i.p.) and xylazine (20 mg/kg i.p.). Needle electrodes were inserted at vertex and pinna, with a ground near the tail. ABRs were evoked with 5-ms tone pips (0.5-ms rise-fall with a cos^2 onset envelope delivered at 35/s). The response was amplified, filtered and averaged in a LabVIEW-driven data-acquisition system. Sound level was raised in 5 dB steps from ≥10 dB below threshold <80 dB SPL. At each sound level, 1024 responses were averaged (with stimulus polarity alternated), using an “artifact reject,” whereby response waveforms were discarded when peak-to-peak response amplitude exceeded 15 μV. […] For amplitude versus level functions, the wave I peak was identified by visual inspection at each sound level and the peak-to-peak amplitude computed.

As to `C[C@H](NC(=O)[C@@H](O)c1cc(F)cc(F)c1)C(=O)N[C@@H]1C(=O)N(C)c2ccccc2-c2ccccc21` [LY411575, N-2((2S)-2-(3,5-difluorophenyl)-2-hydroxyethanoyl)-N1-((7S)-5-methyl-6-oxo-6,7-dihydro-5H-dibenzo[b,d]azepin-7-yl)-l-alaninamide], the “ABR wave I amplitudes” value in the data set on deafened ears (8, 11.33 and 16 kHz, 3 months) is reported as “increased”. Further, the ABR threshold recoveries result in the data set on deafened ears (8, 11.33 and 16 kHz, 3 months after treatment vs 1 d after noise) is given as “significantly greater than control”. The “sound level at which the ABR peak could first be detected” value in the data set on deafened ears (8 kHz, 3 months after treatment, example mouse, control side 75 dB) is reported as 65 dB. Moreover, in the data set on deafened ears (frequencies above 22.65 kHz, either ear), the “ABR threshold recoveries at high frequencies” value is listed as “No threshold recoveries”. Besides, the “recoveries above the noise floor of DPOAE” value in the data set on deafened ears (mouse, in vivo) is recorded as “no recoveries”. Also, in the data set with deafened mature cochlea (3 months, treated group), the “numbers of inner hair cells” value is given as “no significant changes”. Further, the “number of outer hair cells compared to carrier-treated contralateral ear” value in the data set on deafened mature cochlea (3 months, 8-16 kHz, p<0.05) was “increased”. Also, the “number of supporting cells in the outer hair cell region compared to carrier-treated ear” value in the data set with deafened mature cochlea (3 months, 8 and 11.3 kHz areas, p<0.05) was “decreased significantly”. Moreover, the “outer hair cells in the most basal regions” value in the data set on deafened mature cochlea (above 22 kHz, with and without LY411575) is “completely absent”. Besides, in data set [1], the “side-effects in treated mice” value is given as “significant side-effects” and the “thymus total number of cells decreased to” value is 1/40. Besides, in data set [1] (deaths due to severe diarrhea and weight loss), the “mice (of 12) that could be tested for ABR at 3 months; the rest died within the first week” value amounted to 6 mice. Also, the “thymus double positive fraction of CD4 and CD8 after treatment” value in data set [1] (decreased from 78.6%) stood at 1.23%. In addition, the “weight loss in surviving mice” value in data set [1] (in 3 d) is “approximately 15%”. In data set [1] (in a week), the spleen finding result is recorded as “severe atrophy”. The “therapeutic benefit at lower dose” value in the data set on noise-damaged cochlea (10 mg/kg body weight) was “no therapeutic benefit”. In the data set with noise-damaged cochlea (oral 50 mg/kg for 5 d, 4, 8 and 16 kHz), the “noise-induced ABR threshold shift” value is “decreased”.
